Measured values from patent US10392630B2, “Plants having increased tolerance to herbicides” (BASF AGRO B.V., priority 2013, dated 2019).
Positions count from the first letter of the chain named.

Columns and labels:
Experiment in all cases: biochemical
[1] = target: T1, Amaranthus mutant PPO (AMARE) (Amaranthus tuberculatus, UniProt Q0NZW9, F420V/R128L)
T1 sequence (Q0NZW9 1-534 R128L/F420V): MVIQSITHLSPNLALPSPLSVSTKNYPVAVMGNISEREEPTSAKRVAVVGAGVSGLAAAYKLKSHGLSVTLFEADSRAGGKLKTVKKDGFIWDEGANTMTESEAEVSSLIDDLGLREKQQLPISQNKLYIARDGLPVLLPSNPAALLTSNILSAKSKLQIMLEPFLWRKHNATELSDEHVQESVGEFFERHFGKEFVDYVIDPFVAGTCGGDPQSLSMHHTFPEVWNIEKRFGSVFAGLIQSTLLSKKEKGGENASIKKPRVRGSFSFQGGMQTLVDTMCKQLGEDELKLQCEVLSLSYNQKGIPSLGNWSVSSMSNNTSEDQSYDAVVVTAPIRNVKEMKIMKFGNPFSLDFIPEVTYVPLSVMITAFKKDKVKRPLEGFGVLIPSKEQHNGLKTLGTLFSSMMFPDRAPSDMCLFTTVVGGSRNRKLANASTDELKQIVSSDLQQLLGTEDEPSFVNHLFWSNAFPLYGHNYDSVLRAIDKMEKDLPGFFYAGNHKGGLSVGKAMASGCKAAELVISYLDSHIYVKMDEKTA

[2] = target: T2, Amaranthus mutant PPO (AMARE) (Amaranthus tuberculatus, UniProt Q0NZW9, F420V/R128I)
T2 sequence (Q0NZW9 1-534 R128I/F420V): T1 sequence (Q0NZW9 1-534 R128L/F420V) with L128I

[3] = target: T3, Amaranthus mutant PPO (AMARE) (Amaranthus tuberculatus, UniProt Q0NZW9, F420M/R128A)
T3 sequence (Q0NZW9 1-534 R128A/F420M): T1 sequence (Q0NZW9 1-534 R128L/F420V) with L128A, V420M

[4] = target: T4, Amaranthus mutant PPO (AMARE) (Amaranthus tuberculatus, UniProt Q0NZW9, F420I)
T4 sequence (Q0NZW9 1-534 F420I): T1 sequence (Q0NZW9 1-534 R128L/F420V) with L128R, V420I

[5] = target: T5, Amaranthus mutant PPO (AMARE) (Amaranthus tuberculatus, UniProt Q0NZW9, F420V)
T5 sequence (Q0NZW9 1-534 F420V): T1 sequence (Q0NZW9 1-534 R128L/F420V) with L128R

CC(C)N(C)S(=O)(=O)NC(=O)c1cc(-n2c(=O)cc(C(F)(F)F)n(C)c2=O)c(F)cc1Cl [saflufenacil]
IC50 [1]: > 10 µM | IC50 [2]: > 10 µM | IC50 [3]: > 10 µM | IC50 [4]: 0.919 µM | IC50 [5]: 1.59 µM

C#CCN1C(=O)C(F)(F)Oc2cc(F)c(-n3c(=O)n(C)c(=S)n(C)c3=O)cc21 [BAS 850H]
IC50 [1]: 1.51 µM | IC50 [2]: 0.424 µM | IC50 [5]: 0.00161 µM
